Results on two molecules are retold here after paper PMC5703966, “Systemic clearance and brain distribution of carbazole-based cyanine compounds as Alzheimer’s disease drug candidates” (Scientific Reports, 2017).

Structures are written as SMILES.

One series addresses T1, OATP1B1 (Homo sapiens, UniProt Q9Y6L6).
T1 sequence (Q9Y6L6 1-691): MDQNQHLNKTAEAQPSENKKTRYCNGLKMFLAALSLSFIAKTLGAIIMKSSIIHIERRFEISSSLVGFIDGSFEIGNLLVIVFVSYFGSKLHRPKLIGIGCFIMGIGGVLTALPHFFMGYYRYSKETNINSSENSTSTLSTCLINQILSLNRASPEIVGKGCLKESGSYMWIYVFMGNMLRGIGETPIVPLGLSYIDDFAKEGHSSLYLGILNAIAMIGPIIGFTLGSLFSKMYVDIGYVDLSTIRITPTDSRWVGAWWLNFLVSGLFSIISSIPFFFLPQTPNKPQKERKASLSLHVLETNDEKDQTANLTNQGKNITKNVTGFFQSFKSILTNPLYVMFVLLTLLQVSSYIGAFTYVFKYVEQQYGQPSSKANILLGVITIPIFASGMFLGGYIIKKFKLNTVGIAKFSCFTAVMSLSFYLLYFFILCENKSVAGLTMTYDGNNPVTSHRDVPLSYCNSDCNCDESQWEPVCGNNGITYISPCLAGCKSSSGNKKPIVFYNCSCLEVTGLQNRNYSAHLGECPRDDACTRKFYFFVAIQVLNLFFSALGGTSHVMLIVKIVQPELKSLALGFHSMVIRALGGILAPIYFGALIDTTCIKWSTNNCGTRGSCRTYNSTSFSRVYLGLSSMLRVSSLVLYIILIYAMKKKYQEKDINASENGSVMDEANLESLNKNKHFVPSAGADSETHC
Kind of series: OATP substrate identification, uptake in stably transfected HEK293 cells. As to conditions: 1 and 10 μM, 10 mins. Here is the method: (§1) Daily changes of medium were performed and on the second day after seeding using medium containing 10 mM sodium butyrate.
(§2) Stably transfected HEK cells and control vector-transfected HEK293 cells were first washed (3 × 1 mL) with prewarmed HBSS (pH 7.4) and then were incubated with 250 μL of HBSS containing compounds at concentrations of 1 and 10 μM. Cells were incubated for 10 mins at 37 °C for all experiments. After incubation, uptake was stopped by aspirating the incubation solution and washing each well 3 times with 200 μL of ice-old HBSS. The cells were lysed in 150 μL of 1 M NaOH for 30 mins, and then neutralized by adding equal volumes of 1 M HCl.
(§3) The following equations (3 and 4) were used to calculate the uptake rates (U, pmol/mg/min) and the OATP1B1, OATP1B3, OATP2B1 and OATP1A2 uptake ratio (UR):3 U=Clysate/P×T 4 UR=UOATP1B1/1B3/2B1/1A2/UHEK293−MOCK where C lysate is the compound concentration in cell lysates. P is the protein concentration in cell lysates. T is the incubation time. U OATP1B1/1B3/2B1/1A2 is the uptake rate obtained in HEK293 stably transfected OATP1B1, OATP1B3, OATP2B1 or OATP1A2 transportation. U HEK293-MOCK is the uptake rate obtained in control vector-transfected HEK293 transportation.

The next series deals with T2, OATP1B3 (Homo sapiens, UniProt Q9NPD5).
T2 sequence (Q9NPD5 1-702): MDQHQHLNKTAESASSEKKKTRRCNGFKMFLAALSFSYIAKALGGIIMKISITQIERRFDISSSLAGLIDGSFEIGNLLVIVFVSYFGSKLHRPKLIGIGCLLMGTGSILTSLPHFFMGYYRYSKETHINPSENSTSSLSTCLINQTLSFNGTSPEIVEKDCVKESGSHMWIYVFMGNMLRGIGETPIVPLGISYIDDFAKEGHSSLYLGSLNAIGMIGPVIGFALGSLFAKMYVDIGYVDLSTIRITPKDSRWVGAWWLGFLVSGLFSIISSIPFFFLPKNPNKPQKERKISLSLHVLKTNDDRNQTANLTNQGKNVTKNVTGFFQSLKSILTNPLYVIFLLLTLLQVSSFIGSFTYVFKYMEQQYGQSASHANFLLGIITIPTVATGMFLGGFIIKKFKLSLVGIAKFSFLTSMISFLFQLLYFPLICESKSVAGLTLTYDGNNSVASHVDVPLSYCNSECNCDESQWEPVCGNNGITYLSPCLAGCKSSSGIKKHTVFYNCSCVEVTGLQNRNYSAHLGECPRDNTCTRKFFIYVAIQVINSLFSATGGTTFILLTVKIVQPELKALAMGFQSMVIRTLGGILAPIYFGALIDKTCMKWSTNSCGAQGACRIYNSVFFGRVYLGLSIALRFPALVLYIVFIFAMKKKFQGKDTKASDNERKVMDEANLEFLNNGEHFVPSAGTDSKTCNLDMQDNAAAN
Described as above. To be noted: 1 and 10 μM, 10 mins. Here is the method:
as §1, §2, §3

The nature of series [1]: Liver microsomes stability with NADPH. As to conditions: for microsomal CLint at 1 μM: ICR/CD-1, liver microsomes, NADPH, read-out: Microsomes Cl int,app; for microsomal CLint at 1 μM / CLint scaled at 1 μM: pH 7.4; for CLint scaled at 1 μM: ICR/CD-1, mouse, liver microsomes, read-out: Microsomes Cl int,scaled; for Microsomes scaled Cl hep: well-stirred model; for Microsomes Cl u, int,app: Cl int,app / f u,mic. It is filed as in vitro ADME, mouse.

The next series addresses T3, BCRP (Homo sapiens, UniProt Q9UNQ0).
T3 sequence (Q9UNQ0 1-655): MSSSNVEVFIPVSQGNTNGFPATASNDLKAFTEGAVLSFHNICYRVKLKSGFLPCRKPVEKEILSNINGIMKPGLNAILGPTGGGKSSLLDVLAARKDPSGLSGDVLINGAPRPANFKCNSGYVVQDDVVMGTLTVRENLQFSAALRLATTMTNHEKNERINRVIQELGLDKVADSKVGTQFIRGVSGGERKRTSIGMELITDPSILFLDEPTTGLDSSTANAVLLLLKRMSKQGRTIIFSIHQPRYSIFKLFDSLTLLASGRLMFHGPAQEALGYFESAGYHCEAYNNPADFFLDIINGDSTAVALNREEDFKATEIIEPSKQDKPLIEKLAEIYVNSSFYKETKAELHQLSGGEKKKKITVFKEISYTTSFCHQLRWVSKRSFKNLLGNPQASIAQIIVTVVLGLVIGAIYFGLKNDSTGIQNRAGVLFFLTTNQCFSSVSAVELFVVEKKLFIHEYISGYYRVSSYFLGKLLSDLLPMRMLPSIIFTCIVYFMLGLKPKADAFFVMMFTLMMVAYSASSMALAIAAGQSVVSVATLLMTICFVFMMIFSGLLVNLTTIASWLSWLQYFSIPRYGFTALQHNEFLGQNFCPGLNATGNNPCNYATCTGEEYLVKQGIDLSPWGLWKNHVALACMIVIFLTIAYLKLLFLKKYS
Kind of series: Efflux transporter identification in Caco-2 cell with BCRP specific inhibitors. To be noted: efflux ratio reduced by fumitremorgin C and Ko134, concentration-dependent. A general note: Caco-2 cells form a polarised layer with tight junctions and transporters.

For the molecule `COCCOCCn1c2ccccc2c2cc(/C=C/c3cc[n+](C)c4ccccc34)ccc21.[I-]` [SLM, (E)-4-(2-(9-(2-(2-methoxyethoxy)ethyl)-9H-carbazol-3-yl)-vinyl)-1-methyl-quinolin-1-iumiodide], the “uptake by OATP1B1 transfected HEK293 versus WT cells” value at OATP1B1 is on record as “no significant differences”. Moreover, on OATP1B3, the “uptake by OATP1B3 transfected HEK293 versus WT cells” value is reported as “no significant differences”. In series [1] (mouse), the microsomal CLint at 1 μM worked out at 30 µL/min/mg; the “Microsomes scaled Cl hep” value was 16 ± 0.833 mL/min/kg; the “Microsomes Cl u, int,app” value is recorded as 0.300 ± 0.0200^$$ mL/min/mg. Moreover, the CLint scaled at 1 μM in series [1] is 130 ± 9 mL/min/kg. Besides, the BCRP substrate identification result at BCRP is “substrates”.
In the case of `COCCOCCn1c2ccccc2c2cc(/C=C/c3cc[n+](CCO)c4ccccc34)ccc21` [SLOH, (E)-1-(2-hydroxyethyl)-4-(2-(9-(2-(2-metho-xyethoxy)-ethyl)-9H-carbazol-3-yl)vinyl) quinolin-1-ium chloride], the “uptake by OATP1B1 transfected HEK293 versus WT cells” value on OATP1B1 is “no significant differences”. In addition, the “uptake by OATP1B3 transfected HEK293 versus WT cells” value on OATP1B3 is “no significant differences”. In series [1] (mouse), the microsomal CLint at 1 μM came to 30 µL/min/mg; the “Microsomes Cl u, int,scaled” value is 680 ± 75.0^$$ mL/min/Kg; the “Microsomes scaled Cl hep” value was 18.3 ± 1.67 mL/min/kg; the “Microsomes Cl u, int,app” value is given as 0.170 ± 0.0200^$$ mL/min/mg. In addition, in series [1], the CLint scaled at 1 μM worked out at 110 ± 13 mL/min/kg. For the same molecule, the BCRP substrate identification result on BCRP is listed as “substrates”.
